Here are results for five compounds from patent US20220054532A1, “VETERINARY COMPOSITIONS AND METHODS OF USE THEREFOR” (priority 2019, published 2022).

What all share (assay type): in vivo
The subject of series [1] is dogs suffering from cognitive dysfunction syndrome. Kind of series: Example 2: cognitive decline, Cognitive Dysfunction Screening Checklist. As to conditions: for Average Final Score: day 60, BID. From the text: (§1) This example examines the ability of embodiments of the invention versus Anipryl® to treat cognitive decline.
The patient group is twenty dogs suffering from cognitive dysfunction syndrome, as determined by the Cognitive Dysfunction Screening Checklist. See G. Landsberg et al., 2003 HANDBOOK OF BEHAVIOR PROBLEMS OF THE DOG AND CAT (Elsevier Science Limited) (2003). The twenty dogs are broken into five groups of four dogs. The first group receives Anipryl® as the sole active agent; the second group receives a composition comprising HMW HA as the sole active agent; the third group receives a composition comprising CBD as the sole active agent; the fourth group receives a composition comprising HMW HA and CBD as the active agents; and the fifth group receives a composition comprising HMW HA, CBD, nicotinamide adenine dinucleotide (“NAD”), and phosphatidylserine as the active agents.
(§2) Each composition is administered for a period of sixty (60) days, twice per day (“BID”). The owner completes the Checklist on days 0 (“Initial Score”), 15, 30, 45, and 60 (“Final Score”) of treatment.
Each group is evaluated and Checklist scores averaged. The following scores are observed and the results depicted in FIG. 2: […]

Series [2] has the same test system. Kind of series: Example 10: cognitive decline, Cognitive Dysfunction Screening Checklist (CBD Complex). As to conditions: for Average Final Score: day 60, BID.
Text: as §1
The patient group is twenty dogs suffering from cognitive dysfunction syndrome, as determined by the Cognitive Dysfunction Screening Checklist. See G. Landsberg et al., 2003 HANDBOOK OF BEHAVIOR PROBLEMS OF THE DOG AND CAT (Elsevier Science Limited) (2003). The twenty dogs are broken into five groups of four dogs. The first group receives Anipryl® as the sole active agent; the second group receives a composition comprising HMW HA as the sole active agent; the third group receives a composition comprising CBD as the sole active agent; the fourth group receives a composition comprising HMW HA and CBD Complex as the active agents; and the fifth group receives a composition comprising HMW HA, CBD Complex, nicotinamide adenine dinucleotide (“NAD”), and phosphatidylserine as the active agents.
as §2
Each group is evaluated and Checklist scores averaged. The following scores are observed and the results depicted in FIG. 10: […]

In series [3] the test system is dogs suffering from heart failure. The series can be described thus: Example 7: heart failure in dogs. The following applies: heart failure scale 1 (few to no clinical signs) to 10 (severe). From the text:
This example examines the ability of embodiments of the invention versus enalapril to treat heart failure.
The patient group is twenty-four dogs suffering from heart failure.
The patient group is broken into six groups of four dogs. The first group receives enalapril as the sole active agent; the second group receives a composition comprising enalapril and Lasix®; the third group receives a composition comprising HMW HA as the sole active agent; the fourth group receives a composition comprising CBD as the sole active agent; the fifth group receives a composition comprising HMW HA and CBD as the active agents; and the sixth group receives a composition comprising HMW HA, CBD, liposomal CoQ10, hawthorn berry, and ginko biloba as the active agents.
Each composition is administered for a period of ninety (90) days, BID. Each animal is evaluated on days 0 (“Initial Score”), 30, 60, and 90 (“Final Score”) of treatment. The results are averaged and characterized on a scale of 1 (few to no clinical signs of heart failure) to 10 (severe heart failure).
The following canine scores are observed and the results depicted in FIG. 7: […]

Series [4] has as its system dogs suffering from GI-specific inflammation. Kind of series: Example 3: GI-specific inflammation, owner-rated symptom reduction (canine). The following applies: symptom reduction score 0 (no reduction) to 4 (resolution of symptoms). From the text: (§3) This example examines the ability of embodiments of the invention versus Pepcid® to treat unwanted GI-specific inflammation characterized by gastritis, reflux, vomiting, diarrhea, and inappetence.
(§4) The first patient group is twenty dogs suffering from GI-specific inflammation. The second patient group is twenty cats suffering from GI-specific inflammation. Each patient group is broken into five groups of four animals. The first groups receive Pepcid® as the sole active agent; the second groups receive a composition comprising HMW HA as the sole active agent; the third groups receive a composition comprising CBD as the sole active agent; the fourth groups receive a composition comprising HMW HA and CBD as the active agents; and the fifth groups receive a composition comprising HMW HA, CBD, and glutathione as the active agents.
(§5) Each composition is administered for a period of twenty-eight (28) days, BID. The owner observes potential reduction of symptoms at the end of treatment and rates the reduction as no reduction (score of 0), mild reduction (score of 1), moderate reduction (score of 2), significant reduction (score of 3), or resolution of symptoms (score of 4).
The following canine scores are observed and the results depicted in FIG. 3a: […]

In series [5] the test system is cats suffering from GI-specific inflammation. The series can be described thus: Example 3: GI-specific inflammation, owner-rated symptom reduction (feline). As to conditions: symptom reduction score 0 (no reduction) to 4 (resolution of symptoms).
Text: as §3, §4, §5
The following feline scores are observed and the results depicted in FIG. 3b: […]

The subject of series [6] is dogs suffering from GI-specific inflammation. The series can be described thus: Example 11: GI-specific inflammation, owner-rated symptom reduction (canine, CBD Complex). As to conditions: canine (FIG. 11a), symptom reduction score 0 (no reduction) to 4 (resolution of symptoms).
Text: as §3
as §4, with “and CBD Complex as the” for “and CBD as the”, “HMW HA, CBD Complex, and glutathione” for “HMW HA, CBD, and glutathione”
as §5

Series [7] relates to cats suffering from GI-specific inflammation. The series can be described thus: Example 11: GI-specific inflammation, owner-rated symptom reduction. The following applies: species not given, symptom reduction score 0 to 4.
Text: as §3
as §4, with “and CBD Complex as the” for “and CBD as the”, “HMW HA, CBD Complex, and glutathione” for “HMW HA, CBD, and glutathione”
as §5

Series [8] concerns dogs with a history of severe, chronic skin issues, atopy, pruritis, yeast overgrowth, and/or infection. Kind of series: Example 8: skin conditions (itch score) and side effects in dogs. Details: Average Side Effect Score: scale not given here. From the text: (§6) This example examines the ability of embodiments of the invention versus prednisone to treat skin conditions.
(§7) The patient group is twenty-four dogs with a history of severe, chronic skin issues, atopy, pruritis, yeast overgrowth, and/or infection, as diagnosed by their referring veterinarian. The patient group is broken into six groups of four animals. The first group receives prednisone as the sole active agent; the second group receives a composition comprising prednisone and HMW HA as the active agents; the third group receives a composition comprising HMW HA as the sole active agent; the fourth group receives a composition comprising CBD as the sole active agent; the fifth group receives a composition comprising HMW HA and CBD as the active agents; and the sixth group receives a composition comprising HMW HA, CBD, quercetin, and nettles as the active agents.
(§8) Each composition is administered for a period of sixty (60) days, BID. Each dog is evaluated on days 0 (“Initial Score”), 20, 40, and 60 (“Final Score”) of treatment. The results are averaged and characterized on a scale of 0 (no itching—normal dog), 2 (very mild itching—only occasional episodes), 4 (mild itching), 6 (moderate itching—regular episodes), 8 (severe itching—prolonged episodes), to 10 (extremely severe itching—almost continuous).
The following scores are observed and the results depicted in FIG. 8: […]

Series [9] has the same test system. Kind of series: Example 16: skin conditions (itch score) and side effects in dogs (CBD Complex). The following applies: dogs with skin conditions; 60 days BID.
Text: as §6
as §7, with “and CBD Complex as the” for “and CBD as the”, “HMW HA, CBD Complex, quercetin, and” for “HMW HA, CBD, quercetin, and”
as §8

Series [10] deals with dogs suffering from osteoarthritis. Kind of series: Example 1: pain relief and side effects in canine osteoarthritis. As to conditions: dogs with osteoarthritis, 4 weeks of administration, group average. From the text:
(§9) This example examines the ability of various compositions to minimize pain and examines the level of adverse side effects of each composition.
(§10) At the outset of the study, participants receive a full physical examination, including weight measurement, thigh circumference, and CBC/blood chemistries. Because osteoarthritis is not only a disease of pain, but one characterized by behavioral, appetite, anxiety/aggression, family socialization, and sleep aberrations, the pet's owners are familiarized with the pain scale (canine orthopedic index) and additional behavioral assessment log.
The patient group is twenty-four dogs suffering from osteoarthritis, broken into eight groups of three dogs. The first group receives a control composition with no active agent; the second group receives a composition comprising HA as the sole active agent; the third group receives a composition comprising HMW HA as the sole active agent; the fourth group receives a composition comprising CBD as the sole active agent; the fifth group receives a composition comprising HA and CBD as the active agents; the sixth group receives a composition comprising HMW HA and CBD as the active agents; the seventh group receives a composition comprising Rimadyl as the active agent; and the eighth group receives a composition comprising Meloxicam as the active agent.
(§11) Each composition is administered for a period of four (4) weeks. The owner completes the electronic log questionnaire each week. At the end of the 4-week study, participants have another full physical examination, including weight measurement, thigh circumference, and CBC/blood chemistries, with an exit interview of the owners to gain final impressions.
Each group is evaluated for pain scores and the scores averaged. The following scores are observed and the results depicted in FIG. 1: […]

Series [11] shares this test system. The series can be described thus: Example 9: pain relief and side effects in canine osteoarthritis (CBD Complex). As to conditions: dogs with osteoarthritis, 4 weeks of administration, group average.
Text: as §9, §10
The patient group is twenty-four dogs suffering from osteoarthritis, broken into eight groups of three dogs. The first group receives a control composition with no active agent; the second group receives a composition comprising HA as the sole active agent; the third group receives a composition comprising HMW HA as the sole active agent; the fourth group receives a composition comprising CBD as the sole active agent; the fifth group receives a composition comprising HA and CBD as the active agents; the sixth group receives a composition comprising HMW HA and CBD Complex as the active agents; the seventh group receives a composition comprising Rimadyl as the active agent; and the eighth group receives a composition comprising Meloxicam as the active agent.
as §11
Each group is evaluated for pain scores and the scores averaged. The following scores are observed and the results depicted in FIG. 9: […]

On to `C#CCN(C)[C@H](C)Cc1ccccc1` [Anipryl ®, Selegiline], for which the “Average Initial Score” value in series [1] (day 0 (before treatment)) and in series [2] (day 0 (before treatment)) was 3 in each case. The “Average Final Score” value in series [1] was 2; in series [1] (listed as Anipryl®) it was “as effective as HMW HA alone”; in series [2] it was 2; in series [2] (listed as Anipryl®), “as effective as HMW HA alone”.
For the compound `CCOC(=O)[C@H](CCc1ccccc1)N[C@@H](C)C(=O)N1CCC[C@H]1C(=O)O` [Enalapril], the “Initial Score” value in series [3] (day 0) was determined as 8. Also, the “Final Score” value in series [3] (day 90, BID) is listed as 5.
As to `NC(N)=Nc1nc(CSCCC(N)=NS(N)(=O)=O)cs1` [Pepcid ®, Famotidine], the “Final Score” value in series [4] (after 28 days BID), in series [5] (after 28 days BID), in [6] (after 28 days BID) and in series [7] (after 28 days BID) was 1 in each case. Also, the “Initial Score” value in [4] (initial), in series [5] (initial), in series [6] (initial) and in series [7] (initial) was 0 in each case.
With `C[C@]12C=CC(=O)C=C1CC[C@@H]1[C@@H]2C(=O)C[C@@]2(C)[C@H]1CC[C@]2(O)C(=O)CO` [Prednisone], the “Average Side Effect Score” value in series [8] (dogs with skin conditions, 60 days BID) worked out at 17; in series [9] it was 17. Further, the “Initial Itch Score” value in series [8] (itch scale 0 (no itching) to 10 (extremely severe), day 0) was determined as 9. Besides, the “Final Itch Score” value in series [8] (itch scale 0 (no itching) to 10 (extremely severe), day 60, BID) came to 6.
For the compound hyaluronic acid [HA Alone], the “Average Pain Score” value was 18 in series [10], “only slightly reduce pain” in [10] (listed as HA alone), 18 in series [11] and “only slightly reduce pain” in series [11] (listed as HA alone). Moreover, the “Average Side Effect Score” value is 6 in [10], “low degree of adverse side effects” in series [10] (listed as HA alone), 6 in [11] and “low degree of adverse side effects” in series [11] (listed as HA alone).
